Drawing on US9834542B2, “LXR modulators” (BRISTOL-MYERS SQUIBB COMPANY, priority 2013, dated 2017), this text covers EC50 and Emax for 20 molecules.

Each structure is given as a SMILES string.

The target in this test is T1, LXRβ (Homo sapiens, UniProt P55055).
T1 construct: Co-transfection expression plasmids, comprising full-length LXRα (pCMX-h LXRα[…] or LXRβ (pCMX-hLXRβ)); expressed in transfected cells; host or cells: CV-1 African Green Monkey Kidney Cells
T1 sequence (P55055 1-460): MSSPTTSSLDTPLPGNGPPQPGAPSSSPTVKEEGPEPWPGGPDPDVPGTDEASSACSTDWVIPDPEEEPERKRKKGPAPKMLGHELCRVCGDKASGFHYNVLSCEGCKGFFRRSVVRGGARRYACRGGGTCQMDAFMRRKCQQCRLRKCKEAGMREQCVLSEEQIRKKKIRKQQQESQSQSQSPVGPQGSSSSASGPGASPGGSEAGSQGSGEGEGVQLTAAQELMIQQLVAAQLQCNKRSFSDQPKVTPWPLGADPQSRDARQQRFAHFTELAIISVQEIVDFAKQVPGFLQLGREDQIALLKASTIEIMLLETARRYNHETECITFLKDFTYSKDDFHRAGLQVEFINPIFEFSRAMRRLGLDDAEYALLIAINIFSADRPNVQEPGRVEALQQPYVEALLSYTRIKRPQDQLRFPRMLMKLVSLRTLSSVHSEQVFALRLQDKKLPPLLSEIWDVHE
T1 sequence (P19793 1-462 partner): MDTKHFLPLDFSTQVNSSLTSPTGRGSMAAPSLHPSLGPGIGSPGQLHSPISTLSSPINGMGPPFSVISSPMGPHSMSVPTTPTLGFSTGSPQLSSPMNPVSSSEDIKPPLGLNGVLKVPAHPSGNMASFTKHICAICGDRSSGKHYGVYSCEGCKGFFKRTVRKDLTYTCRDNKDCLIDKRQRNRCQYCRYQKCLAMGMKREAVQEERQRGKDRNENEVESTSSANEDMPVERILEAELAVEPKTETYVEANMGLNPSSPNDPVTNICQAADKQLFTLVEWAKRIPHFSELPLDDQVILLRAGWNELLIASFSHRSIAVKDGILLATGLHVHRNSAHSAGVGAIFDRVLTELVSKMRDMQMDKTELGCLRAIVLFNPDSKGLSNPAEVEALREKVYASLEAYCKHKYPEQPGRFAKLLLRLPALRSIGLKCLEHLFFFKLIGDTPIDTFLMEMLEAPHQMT
As to the kind of experiment: Co-transfection assay (LXRE luciferase reporter), LXRβ. The class given is cell-based. The note with it: for EC50: CV-1 cells transfected with pCMX-hLXRβ and LXREx1-Tk-Luciferase, 20 hours incubation; for Emax: LXRβ co-transfection, relative to high control 1-(2,4-difluorobenzyl)-2-oxo-6-(4-phenoxyphenyl)-4-(trifluoromethyl)-1,2-dihydropyridine-3-carbonitrile, read-out: % Efficacy. In a few lines:
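Luciferase signal from an LXREx1-Tk reporter was measured after transfected CV-1 cells (full-length hLXRβ, endogenous RXR) were treated with compounds for 20 h at 37 °C, ≤0.5% DMSO. EC50 came from four-parameter fits of 11-point ½-log curves; % efficacy versus a reference agonist maximum.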

As to `Cc1nc(C(F)(F)F)cn1-c1ccc(-c2cc(F)c(CO)c(S(C)(=O)=O)c2)cc1-n1nncc1C(C)c1ccc(Cl)cc1` (stereo not shown) [Example 109, (3′-{5-[1-(4-chlorophenyl)ethyl]-1H-1,2,3-triazol-1-yl}-3-fluoro-5-(methylsulfonyl)-4′-[2-methyl-4-(trifluoromethyl)-1H-imidazol-1-yl]biphenyl-4-yl)methanol], the EC50 amounted to 111 nM and the Emax was 53%.
In the case of `Cc1ccc(C(C)c2cnnn2-c2cc(-c3cc(Cl)c(CO)c(S(C)(=O)=O)c3)ccc2-n2cc(C(F)(F)F)nc2C)cc1` (stereo not shown) [Example 110, (3-chloro-3′-{5-[1-(4-methylphenyl)ethyl]-1H-1,2,3-triazol-1-yl}-5-(methylsulfonyl)-4′-[2-methyl-4-(trifluoromethyl)-1H-imidazol-1-yl]biphenyl-4-yl)methanol], the midpoint of the response, the EC50, lay at 103 nM and the Emax was 77%.
The matching figures for `Cc1ccc(C(C)c2cnnn2-c2cc(-c3cccc(S(C)(=O)=O)c3)ccc2-n2cc(C(F)(F)F)nc2C)cc1` (stereo not shown) [Example 111, 5-[1-(4-methylphenyl)ethyl]-1-{3′-(methylsulfonyl)-4-[2-methyl-4-(trifluoromethyl)-1H-imidazol-1-yl]biphenyl-3-yl}-1H-1,2,3-triazole]: 930 nM and 92%.
Take `Cc1nc(C(F)(F)F)cn1-c1ccc(-c2cccc(S(C)(=O)=O)c2)cc1-n1nncc1C1(c2ccc(Cl)cc2)CC1` [Example 112, 5-[1-(4-chlorophenyl)cyclopropyl]-1-{3′-(methylsulfonyl)-4-[2-methyl-4-(trifluoromethyl)-1H-imidazol-1-yl]biphenyl-3-yl}-1H-1,2,3-triazole]: the EC50 is 973 nM and the Emax amounted to 53%.
Take `Cc1nc(C(F)(F)F)cn1-c1ccc(-c2cc(F)c(CO)c(S(C)(=O)=O)c2)cc1-n1nncc1Cc1ccc(Cl)cc1` [Example 113]: the EC50 was 524 nM and the Emax was determined as 72%.
Take `Cc1nc(C(F)(F)F)cn1-c1ccc(-c2cccc(C(C)(C)C(N)=O)c2)cc1-n1nncc1Cc1cccc(Cl)c1` [Example 114, 2-(3′-{5-[(3-chlorophenyl)methyl]-1H-1,2,3-triazol-1-yl}-4′-[2-methyl-4-(trifluoromethyl)-1H-imidazol-1-yl]biphenyl-3-yl)-2-methylpropanamide]: it took 940 nM to reach a half-maximal effect (EC50) and the Emax turned out to be 98%.
As to `Cc1nc(C(F)(F)F)cn1-c1ccc(-c2cccc(S(C)(=O)=O)c2)cc1-n1nncc1Cc1ccc(Cl)c(Cl)c1` [Example 115, 5-[(3,4-dichlorophenyl)methyl]-1-{3′-(methylsulfonyl)-4-[2-methyl-4-(trifluoromethyl)-1H-imidazol-1-yl]biphenyl-3-yl}-1H-1,2,3-triazole], the EC50 is 920 nM and the Emax came to 79%.
As for `Cc1nc(C(F)(F)F)cn1-c1ccc(-c2cccc(S(C)(=O)=O)c2)cc1-n1nncc1Cc1cccc(OC(F)(F)F)c1` [Example 116, 1-{3′-(methylsulfonyl)-4-[2-methyl-4-(trifluoromethyl)-1H-imidazol-1-yl]biphenyl-3-yl}-5-({3-[(trifluoromethyl)oxy]phen-yl}methyl)-1H-1,2,3-triazole], the EC50 turned out to be 982 nM and the Emax turned out to be 59%.
The matching figures for `Cc1nc(C(F)(F)F)cn1-c1ccc(-c2cc(Cl)c(CO)c(S(C)(=O)=O)c2)cc1-n1nncc1Cc1cccc(Cl)c1` [Example 117, (3-chloro-3′-{5-[(3-chlorophenyl)methyl]-1H-1,2,3-triazol-1-yl}-5-(methylsulfonyl)-4′-[2-methyl-4-(trifluoromethyl)-1H-imidazol-1-yl]biphenyl-4-yl)methanol]: 1020 nM and 76%.
As to `Cc1nc(C(F)(F)F)cn1-c1ccc(-c2cccc(S(C)(=O)=O)c2)cc1-n1nncc1Cc1ccc(OC(F)(F)F)cc1` [Example 118, 1-{3′-(methylsulfonyl)-4-[2-methyl-4-(trifluoromethyl)-1H-imidazol-1-yl]biphenyl-3-yl}-5-({4-[(trifluoromethyl)oxy]phen-yl}methyl)-1H-1,2,3-triazole], the EC50 amounted to 1040 nM and the Emax is 61%.
For `Cc1nc(C(F)(F)F)cn1-c1ccc(-c2cccc(C(C)(C)C(N)=O)c2)cc1-n1nncc1Cc1ccc(Cl)cc1` [Example 119, 2-(3′-{5-[(4-chlorophenyl)methyl]-1H-1,2,3-triazol-1-yl}-4′-[2-methyl-4-(trifluoromethyl)-1H-imidazol-1-yl]biphenyl-3-yl)-2-methylpropanamide], a half-maximal effect (EC50) was put at 820 nM and the Emax worked out at 85%.
Regarding `Cc1nc(C(F)(F)F)cn1-c1ccc(-c2cc(F)c(CO)c(S(C)(=O)=O)c2)cc1-n1nncc1Cc1cccc(Cl)c1` [Example 120, (3′-{5-[(3-chlorophenyl)methyl]-1H-1,2,3-triazol-1-yl}-3-fluoro-5-(methylsulfonyl)-4′-[2-methyl-4-(trifluoromethyl)-1H-imidazol-1-yl]biphenyl-4-yl)methanol], the EC50 came out at 795 nM and the Emax stood at 91%.
In the case of `Cc1nc(C(F)(F)F)cn1-c1ccc(-c2cccc(S(C)(=O)=O)c2)cc1-n1nncc1Cc1cccc(Cl)c1` [Example 121, 5-[(3-chlorophenyl)methyl]-1-{3′-(methylsulfonyl)-4-[2-methyl-4-(trifluoromethyl)-1H-imidazol-1-yl]biphenyl-3-yl}-1H-1,2,3-triazole], the EC50 was 651 nM and the Emax is 100%.
The matching figures for `Cc1nc(C(F)(F)F)cn1-c1ccc(-c2cc(Cl)c(CO)c(S(C)(=O)=O)c2)cc1-n1nncc1Cc1ccc(Cl)cc1` [Example 122, (3-chloro-3′-{5-[(4-chlorophenyl)methyl]-1H-1,2,3-triazol-1-yl}-5-(methylsulfonyl)-4′-[2-methyl-4-(trifluoromethyl)-1H-imidazol-1-yl]biphenyl-4-yl)methanol]: 643 nM and 64%.
On to `Cc1nc(C(F)(F)F)cn1-c1ccc(-c2cccc(S(C)(=O)=O)c2)cc1-n1nncc1Cc1ccccc1OC(F)(F)F` [Example 123, 1-{3′-(methylsulfonyl)-4-[2-methyl-4-(trifluoromethyl)-1H-imidazol-1-yl]biphenyl-3-yl}-5-({2-[(trifluoromethyl)oxy]phen-yl}methyl)-1H-1,2,3-triazole], for which the EC50 was found to be 1100 nM and the Emax was found to be 36%.
For `Cc1nc(C(F)(F)F)cn1-c1ccc(-c2cccc(S(C)(=O)=O)c2)cc1-n1nncc1Cc1ccc(F)cc1` [Example 124, 5-[(4-fluorophenyl)methyl]-1-{3′-(methylsulfonyl)-4-[2-methyl-4-(trifluoromethyl)-1H-imidazol-1-yl]biphenyl-3-yl}-1H-1,2,3-triazole], the EC50 was 1160 nM and the Emax worked out at 64%.
On to `Cc1nc(C(F)(F)F)cn1-c1ccc(-c2cccc(S(C)(=O)=O)c2)cc1-n1nncc1Cc1ccc(Cl)cc1` [Example 125, 5-[(4-chlorophenyl)methyl]-1-{3′-(methylsulfonyl)-4-[2-methyl-4-(trifluoromethyl)-1H-imidazol-1-yl]biphenyl-3-yl}-1H-1,2,3-triazole], for which it took 355 nM to reach a half-maximal effect (EC50) and the Emax stood at 83%.
In the case of `Cc1ccc(Cc2cnnn2-c2cc(-c3cccc(S(C)(=O)=O)c3)ccc2-n2cc(C(F)(F)F)nc2C)cc1` [Example 126, 5-[(4-methylphenyl)methyl]-1-{3′-(methylsulfonyl)-4-[2-methyl-4-(trifluoromethyl)-1H-imidazol-1-yl]biphenyl-3-yl}-1H-1,2,3-triazole], a half-maximal effect (EC50) was put at 270 nM and the Emax came out at 93%.
Take `Cc1nc(C(F)(F)F)cn1-c1ccc(-c2cccc(S(C)(=O)=O)c2)cc1-n1nncc1CC1CCC(C)CC1` (stereo not shown) [Example 127, 5-[(4-methylcyclohexyl)methyl]-1-{3′-(methylsulfonyl)-4-[2-methyl-4-(trifluoromethyl)-1H-imidazol-1-yl]biphenyl-3-yl}-1H-1,2,3-triazole]: the EC50 turned out to be 776 nM and the Emax turned out to be 55%.
As to `Cc1nc(C(F)(F)F)cn1-c1ccc(-c2cccc(S(C)(=O)=O)c2)cc1-n1nncc1CCc1ccc(Cl)cc1` [Example 129, 5-[2-(4-chlorophenyl)ethyl]-1-{3′-(methylsulfonyl)-4-[2-methyl-4-(trifluoromethyl)-1H-imidazol-1-yl]biphenyl-3-yl}-1H-1,2,3-triazole], the EC50 was 1500 nM and the Emax was found to be 65%.
